Test results from patent US6627648B1, “Pharmaceutical compositions and methods for use” (Targacept, Inc., priority 1999, dated 2003).

How the values were obtained:
[1] = biological target: T1, muscle-type nicotinic acetylcholine receptors (Homo sapiens, UniProt P02708+P07510+Q07001); test: Determination of interaction with muscle receptors; type: cell-based; settings: maximal activation as percentage of maximal activation induced by (S)-(-)-nicotine; for Emax: read-out: effect at muscle sites (Emax)
T1 construct: endogenous in cells; host or cells: TE671/RD (own knowledge of the cited US 5,597,919)
Method: (§1) The determination of the interaction of the compounds with muscle receptors was carried out in accordance with the techniques described in U.S. Pat. No. 5,597,919 to Dull et al. The maximal activation for individual compounds (Emax) was determined as a percentage of the maximal activation induced by (S)-(−)-nicotine. Reported Emax values represent the amount released relative to (S)-(−)-nicotine on a percentage basis. […] Such preferable compounds have the capability to activate human CNS receptors without activating muscle-type nicotinic acetylcholine receptors. Thus, there is provided a therapeutic window for utilization in the treatment of CNS disorders. […] The compounds begin to cause muscle effects only when employed in amounts of many times those required to activate dopamine release.

[2] = system: ganglia-type nicotinic acetylcholine receptors; test: Determination of interaction with ganglion receptors; type: cell-based; settings: maximal activation as percentage of maximal activation induced by (S)-(-)-nicotine
Method: as §1, with “ganglionic” for “muscle”, “ganglia-type” for “muscle-type”, “cause” for “cause muscle”, “effects at ganglia” for “effects”

CNS nicotinic receptors = CNS nicotinic receptors (Rattus norvegicus, UniProt P09483+P12390); test: Determination of binding to relevant receptor sites; settings: inhibition constants calculated from IC50 values by the method of Cheng et al.
Method: Binding of the compounds to relevant receptor sites was determined in accordance with the techniques described in U.S. Pat. No. 5,597,919 to Dull et al. Inhibition constants (Ki values), reported in nM, were calculated from the IC50 values using the method of Cheng et al., Biochem, Pharmacol. 22:3099 (1973).

T1 sequence (P02708 21-457): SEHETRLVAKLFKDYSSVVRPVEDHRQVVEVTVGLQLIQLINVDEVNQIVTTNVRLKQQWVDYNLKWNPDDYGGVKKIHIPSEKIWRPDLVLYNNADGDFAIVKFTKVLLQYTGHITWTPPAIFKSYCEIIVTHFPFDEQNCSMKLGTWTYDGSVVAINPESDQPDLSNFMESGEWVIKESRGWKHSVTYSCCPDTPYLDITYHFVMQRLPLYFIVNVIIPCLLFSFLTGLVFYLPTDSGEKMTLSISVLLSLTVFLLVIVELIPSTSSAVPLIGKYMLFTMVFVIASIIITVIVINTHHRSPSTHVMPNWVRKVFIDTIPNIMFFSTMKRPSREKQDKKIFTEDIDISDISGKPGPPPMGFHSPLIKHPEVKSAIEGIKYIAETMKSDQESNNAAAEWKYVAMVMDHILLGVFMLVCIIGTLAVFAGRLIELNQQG
T1 sequence (P11230 24-501 partner): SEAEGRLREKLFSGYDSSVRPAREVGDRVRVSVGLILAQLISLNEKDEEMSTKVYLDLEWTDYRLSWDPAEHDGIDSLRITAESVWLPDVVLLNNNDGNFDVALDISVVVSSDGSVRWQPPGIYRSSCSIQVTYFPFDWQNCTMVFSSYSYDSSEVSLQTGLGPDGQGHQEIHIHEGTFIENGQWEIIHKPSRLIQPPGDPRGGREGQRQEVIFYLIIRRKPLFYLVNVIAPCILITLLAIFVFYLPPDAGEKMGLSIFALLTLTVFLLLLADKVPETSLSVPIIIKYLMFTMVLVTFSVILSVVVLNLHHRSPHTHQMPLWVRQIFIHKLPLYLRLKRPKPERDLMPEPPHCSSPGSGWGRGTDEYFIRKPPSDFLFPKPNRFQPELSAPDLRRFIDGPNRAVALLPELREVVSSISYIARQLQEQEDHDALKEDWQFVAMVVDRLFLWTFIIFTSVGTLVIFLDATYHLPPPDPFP
T1 sequence (Q07001 22-517): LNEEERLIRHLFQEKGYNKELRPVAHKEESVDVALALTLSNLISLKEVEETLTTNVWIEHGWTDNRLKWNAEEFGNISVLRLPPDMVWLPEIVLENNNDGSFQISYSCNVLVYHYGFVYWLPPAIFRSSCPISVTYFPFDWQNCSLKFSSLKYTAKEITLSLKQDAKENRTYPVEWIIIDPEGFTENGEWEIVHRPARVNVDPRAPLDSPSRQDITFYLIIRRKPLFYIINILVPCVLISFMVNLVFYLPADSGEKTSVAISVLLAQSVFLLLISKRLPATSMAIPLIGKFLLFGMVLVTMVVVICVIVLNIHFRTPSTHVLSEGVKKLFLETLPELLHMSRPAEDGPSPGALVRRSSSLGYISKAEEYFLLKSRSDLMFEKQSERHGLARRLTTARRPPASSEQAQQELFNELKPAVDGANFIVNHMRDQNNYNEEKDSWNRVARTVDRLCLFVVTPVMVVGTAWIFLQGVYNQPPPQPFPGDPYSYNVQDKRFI
T1 sequence (P07510 23-517): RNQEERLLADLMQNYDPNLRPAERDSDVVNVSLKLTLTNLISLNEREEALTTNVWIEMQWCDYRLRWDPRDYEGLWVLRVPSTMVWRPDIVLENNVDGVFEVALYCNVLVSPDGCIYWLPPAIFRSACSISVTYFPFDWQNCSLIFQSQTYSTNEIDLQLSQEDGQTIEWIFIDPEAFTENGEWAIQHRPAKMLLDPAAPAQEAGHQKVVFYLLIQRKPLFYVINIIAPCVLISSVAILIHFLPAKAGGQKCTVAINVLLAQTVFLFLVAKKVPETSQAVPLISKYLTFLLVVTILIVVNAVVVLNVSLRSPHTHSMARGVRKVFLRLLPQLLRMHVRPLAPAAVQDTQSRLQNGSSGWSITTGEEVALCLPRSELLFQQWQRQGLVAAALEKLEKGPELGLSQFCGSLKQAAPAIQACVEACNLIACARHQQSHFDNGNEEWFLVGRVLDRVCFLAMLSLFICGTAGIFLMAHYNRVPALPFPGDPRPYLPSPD
CNS nicotinic receptors, sequence (P09483 31-630): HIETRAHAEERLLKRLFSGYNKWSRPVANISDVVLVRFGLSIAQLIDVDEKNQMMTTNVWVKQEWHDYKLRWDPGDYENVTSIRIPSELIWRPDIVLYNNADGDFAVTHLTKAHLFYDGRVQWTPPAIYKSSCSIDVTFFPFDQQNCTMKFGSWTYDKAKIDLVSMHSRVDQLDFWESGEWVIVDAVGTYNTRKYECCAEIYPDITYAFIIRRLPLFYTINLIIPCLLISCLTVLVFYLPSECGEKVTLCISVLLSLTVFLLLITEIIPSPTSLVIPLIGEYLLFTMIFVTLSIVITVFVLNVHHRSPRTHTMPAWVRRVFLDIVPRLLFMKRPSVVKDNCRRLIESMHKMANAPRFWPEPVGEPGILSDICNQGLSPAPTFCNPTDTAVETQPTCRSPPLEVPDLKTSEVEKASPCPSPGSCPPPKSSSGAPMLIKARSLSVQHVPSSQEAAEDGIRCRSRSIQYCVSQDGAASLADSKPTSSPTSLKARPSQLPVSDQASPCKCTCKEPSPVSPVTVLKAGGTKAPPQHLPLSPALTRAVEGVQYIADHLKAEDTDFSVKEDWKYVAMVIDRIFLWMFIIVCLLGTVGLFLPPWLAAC
CNS nicotinic receptors, sequence (P12390 25-500): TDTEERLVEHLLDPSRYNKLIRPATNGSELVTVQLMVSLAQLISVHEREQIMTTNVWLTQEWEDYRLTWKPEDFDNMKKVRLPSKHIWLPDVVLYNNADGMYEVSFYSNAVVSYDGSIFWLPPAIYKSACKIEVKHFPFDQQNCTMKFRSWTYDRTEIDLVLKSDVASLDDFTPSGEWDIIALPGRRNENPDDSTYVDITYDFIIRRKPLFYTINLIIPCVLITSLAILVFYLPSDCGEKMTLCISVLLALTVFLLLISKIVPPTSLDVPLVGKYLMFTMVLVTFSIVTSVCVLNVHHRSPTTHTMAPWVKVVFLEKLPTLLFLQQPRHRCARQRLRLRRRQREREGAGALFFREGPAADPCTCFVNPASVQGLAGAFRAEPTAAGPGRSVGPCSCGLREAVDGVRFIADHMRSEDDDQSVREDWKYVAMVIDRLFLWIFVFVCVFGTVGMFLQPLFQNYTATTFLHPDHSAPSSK

Compound | effect at muscle sites (Emax) [1] [%] | effect at ganglia sites (Emax) [2] [%] | Emax [1] [%] | Ki (CNS nicotinic receptors) [µM]
(3-(3-Aminophenoxy)propyl)methylamine Hemigalactarate [Example 30] | 11 | 5 |  | 
Methyl(3-(2-methyl(3-pyridyloxy))propyl)amine Hemigalactarate [Example 21] | 0 | 15 |  | 
Methyl(3-(6-methyl(3-pyridyloxy))propyl)amine Hemigalactarate [Example 20] | 0 |  |  | 
Ethyl(3-(3-pyridyloxy)propyl)amine Hemigalactarate [Example 22] | 13 | 13 |  | 
Methyl(3-(5-isopropoxy-3-pyridyloxy)propyl)amine Monogalactarate [Example 18] | 22 | 0 |  | 
Cl.Cl.c1cncc(OC2CCNCC2)c1 [Example 35, 3-(4-Piperidinyloxy)pyridine dihydrochloride] |  | 9 | 16 | 
Methyl(1-methyl-3-(3-pyridyloxy)propyl)amine Hemigalactarate [Example 26] | 16 | 20 |  | 
3-(3-Pyridyloxy)propylamine Hemigalactarate [Example 10] | 0 | 0 |  | 
Methyl(3-(5-methoxy-3-pyridyloxy)propyl)amine Hemigalactarate [Example 17] | 10 | 5 |  | 
3-(5-Chloro-3-pyridyloxy)propylamine Hemigalactarate [Example 15] | 0 | 4 |  | 
Dimethyl(3-(3-pyridyloxy)propyl)amine Hemigalactarate [Example 11] | 8 | 5 |  | 
Methyl(3-(3-nitrophenoxy)propyl)amine Hemigalactarate [Example 28] | 10 | 9 |  | 
CNCCCSc1cncc(Br)c1 [Example 6, 3-(5-Bromo-3-pyridylthio))propyl)methylamine Hemigalactarate] |  |  |  | 40
Cyclopropyl(3-(3-pyridyloxy)propyl)amine Hemigalactarate [Example 25] | 9 | 10 |  | 
Methyl(2-(3-pyridyloxy)ethyl)amine Hemigalactarate [Example 8] | 0 | 0 |  | 
4-(3-Pyridyloxy)butylamine Hemigalactarate [Example 12] | 0 | 11 |  | 
Methyl(3-(5-(phenylmethoxy)(3-pyridyloxy))propyl)amine Hemigalactarate [Example 19] | 1 | 3 |  | 
(3-(5-Chloro(3-pyridyloxy))propyl)methylamine Hemigalactarate [Example 16] | 16 | 7 |  | 
CN(C)CCOc1cccnc1 [Example 9, Dimethyl(2-(3-pyridyloxy)ethylamine Hemigalactarate] |  | 0 | 0 | 
